# Experimental data from article PMC8605905 (Oxidative Medicine and Cellular Longevity, 2021).
# Entries after “also recorded” stand apart in the source; their conditions may differ.
# How the values were obtained:
# [1] = system: Acetylcholinesterase (AChE); assay: AChE activity in Aβ-GFP cells; assay type: cell-based; conditions: 5 μM, vs untreated cells
# Procedure: (§1) Aβ-GFP or ∆K280 tauRD-DsRed SH-SY5Y cells were seeded into 6-well plates (5 × 10^5/well) and treated with retinoic acid, coumarin-chalcone derivatives, and doxycycline as previously described. On day 8, cells were collected and lysates were prepared with six freeze/thaw cycles. The supernatant was collected by centrifugation, followed by measurement of the caspase 1 activity in 50 μg aliquots of cell extract using the ICE fluorometric assay kit (BioVision, Milpitas, CA, USA). Following incubation of the mixture at 37°C for 2 h, fluorescence was measured with excitation/emission wavelengths at 400/505 nm (FLx800 fluorescence microplate reader). In addition, the collected cells were lysed by sonication. Acetylcholinesterase (AChE) activity in the supernatant was determined in 10 μg aliquots of cell extracts using the AChE activity assay kit (Sigma-Aldrich) according to the manufacture's protocol. Finally, the absorbance at 412 nm was measured using a Multiskan GO spectrophotometer (Thermo Fisher Scientific).
# [2] = system: ∆K280 tauRD-DsRed SH-SY5Y cells; assay: ROS assay (DCFH-DA) in ΔK280 tauRD-DsRed cells; assay type: cell-based, Human; conditions: 10 μM
# Procedure: (§2) On day 1, Aβ-GFP or ∆K280 tauRD-DsRed SH-SY5Y cells were seeded into 96-well plates (2.5 × 10^4/well) and treated with retinoic acid (10 μM; Sigma-Aldrich) to prompt neuronal differentiation. […] On day 8, cells were stained with Hoechst 33342 (0.1 μg/ml; Sigma-Aldrich) for 30 min, and cell images were automatically captured at excitation/emission wavelengths of 482/[…] (GFP fluorescence) or 543/593 nm (DsRed fluorescence) using a high content analysis (HCA) system (Micro Confocal High-Content Imaging System). Image Acquisition and Analysis Software (MetaXpress) (Molecular Devices, Sunnyvale, CA, USA) was used to analyse the images. CellROX Orange (5 μM; Molecular Probes, Eugene, OR, USA) (for Aβ-GFP cells) or dichloro-dihydro-fluorescein diacetate (DCFH-DA, 10 μM; Invitrogen) (for ∆K280 tauRD-DsRed cells) was added to the cells and incubated at 37°C for 30 min. The HCA system was used to measure intracellular ROS at 531/593 nm (CellROX Orange fluorescence) or 482/536 nm (DCFH-DA fluorescence) of excitation/emission wavelengths.
# Aβ-GFP SH-SY5Y cells [3] = assay: Real-time PCR of Aβ-GFP RNA; assay type: cell-based, Human; conditions: 5 μM
# Procedure: (§3) To measure the Aβ-GFP/tauRD-DsRed RNA expression on day 8, total RNA was extracted from collected cells and reverse-transcribed to cDNA (SuperScript III reverse transcriptase; Invitrogen, Waltham, MA, USA). Real-time quantitative PCR was performed using 100 ng of cDNA and the gene-specific TaqMan fluorogenic probe PN4331348 (EGFP) or customized Assays-by-Design probe for DsRed and 4326321E (HPRT1) (StepOnePlus Real-time PCR system, Applied Biosystems, Foster City, CA, USA). The RNA expression level was calculated using the formula 2^ΔCt, ΔCT = CT (control) − CT (target), in which CT indicates the cycle threshold.
# caspase 1 [4] = assay: Caspase 1 activity in ΔK280 tauRD-DsRed cells; assay type: cell-based, Human; conditions: 10 μM, ∆K280 tauRD-DsRed cells
# Procedure: as §1
# caspase 1 [5] = assay: Caspase 1 activity in Aβ-GFP cells; assay type: cell-based, Human; conditions: 5 μM, vs untreated cells
# Procedure: as §1
# Aβ-GFP SH-SY5Y cells [6] = assay: ROS assay (CellROX Orange) in Aβ-GFP cells; assay type: cell-based, Human; conditions: tested 1.2–5 μM
# Procedure: as §2
# [7] = system: ∆K280 tauRD-DsRed SH-SY5Y cells; assay: Real-time PCR of tauRD-DsRed RNA; assay type: cell-based, Human; conditions: 10 μM
# Procedure: as §3
# [8] = system: ∆K280 tauRD-DsRed SH-SY5Y cells; assay: High content analysis of neurite outgrowth in ΔK280 tauRD-DsRed cells; assay type: cell-based, Human; conditions: 10 μM
smiles,measurement,setting,value
"CN(C)c1ccc(/C=C/C(=O)c2c(O)c3ccccc3oc2=O)cc1 [LM-021, (E)-3-(3-(4-(dimethylamino)phenyl)acryloyl)-4-hydroxy-2H-chromen-2-one]",AChE activity,[1],reduced
same,ROS level elevated by ∆K280 tauRD overexpression,[2],effectively reduced
same,Aβ-GFP RNA levels,Aβ-GFP SH-SY5Y cells [3],did not significantly modify
same,Caspase 1 activity,caspase 1 [4],lowered caspase 1 activity
same,Caspase 1 activity,caspase 1 [5],reduced
same,Concentration effectively decreasing ROS levels caused by Aβ overexpression,Aβ-GFP SH-SY5Y cells [6],1.2 to 5 µM
same,∆K280 tauRD-DsRed RNA level,[7],did not significantly alter
same,Neurite length and branches,[8],successfully ameliorated; also recorded: ameliorated the defects
